Patent US11192900B2, “Substituted 1,6-dihydropyridinones and 1,2-dihydroisoquinolinones as bet inhibitors” (NUVATION BIO INC., priority 2018, dated 2021)
Like-named read-outs stand apart in the source and are kept apart here.

Assays:
[1] = system: c-Myc; assay: Measurement of c-Myc suppression after washoff (Western blot); format: cell-based, human; settings: MV4-11, 2 μM for 2 hr, washed, further 6 hr
Description: MV4-11 cells were incubated with 2 μM of JQ1, mivebresib or a test compound for 2 hr. The cells were then washed twice with fresh culture medium and further cultured for another 6 hr. Cells were extracted with SDS sample buffers and then subjected to Western blot analysis to measure c-Myc. Compounds 2, 3, 12, 17, 409, 411 and 412 were tested in these assays.

[2] = system: IEC-6 rat intestinal epithelial cell line; assay: IEC-6 cell viability, Protocol B (toxicity to non-cancerous cells); format: cell-based; settings: Rattus norvegicus; IEC-6, 4000 cells per well, 48 hrs
Description: The effects of test compounds were also studied in the IEC-6 rat intestinal epithelial cell line to assess potential toxicity to non-cancerous cells. The cells were harvested during the logarithmic growth period and counted. In Protocol A, cells were seeded at a count of 3000 cells per well/100 μl in a 96-well plate. After seeding, cells were incubated at 37° C., 5% CO2 for 24 hr. Cells were treated with test compounds at 8 concentrations within a desired concentration range (e.g. 5 nM-10 μM) for generation of dose response curves by preparing serial dilutions of the test compound in DMSO which were further diluted with culture medium and then added to each well. The plate was further incubated for another 96 hrs in humidified incubator at 37° C. and 5% CO2. The assay was terminated by addition of resazurin (# R7017, Sigma). The plate was incubated for 4 hr at 37° C., 5% CO2 and fluorescence was measured using excitation and emission wavelengths of 535 and 590 nm, respectively. Cell viability data were plotted using GraphPad Prism (GraphPad Software, Inc., San Diego, Calif.). In addition, a nonlinear regression model with a sigmoidal dose response and variable slope within GraphPad Prism was used to calculate the IC50 value of individual test compounds. Protocol B was the same as Protocol A except that cells were seeded at a count of 4000 cells per well/100 μl in a 96-well plate, and the incubation with test compound was for 48 hrs instead of 96 hrs.

[3] = system: SET-2; assay: Cell viability assay (XTT); format: cell-based; settings: Homo sapiens; SET-2, XTT, up to 72 hr
Description: (§1) A panel of BET-sensitive and insensitive cell lines were profiled for effect on cell viability using compound 3. Cells were cultured in the presence of inhibitors at various concentrations for up to 72 hr. For cell viability assays as previously described (Guo Y, et al. 2012. J Hematol Oncol 5:72; Chen Y, et al. 2016. Oncogene 35:2971-8), 0.08 mg/ml XTT (2,3-bis-(2-methoxy-4-nitro-5-sulfophenyl)-2H-tetrazolium-5-carboxanilide) and 8 μM phenazine methyl sulfate (PMS) were added to the cells at the end of the test compound or vehicle treatment duration, and absorbance at 450 nm was measured after 3 hr incubation at 37° C. Assays were performed in triplicates. IC50 values were estimated using a non-linear mixed effect model fitting a sigmoid curve to the experimental dose response data (Vis D J, et al. 2016. Pharmacogenomics 17(7):691-700).

[4] = system: Jurkat; assay: Cell viability assay (XTT); format: cell-based; settings: Homo sapiens, up to 72 hr
Description: as §1

[5] = system: MV-4-11; assay: Cell viability assay (XTT); format: cell-based; settings: Homo sapiens, MV4-11; MV-4-11, XTT, up to 72 hr
Description: as §1

[6] = system: THP-1; assay: Cell viability assay (XTT); format: cell-based; settings: Homo sapiens; THP-1, XTT, up to 72 hr
Description: as §1

[7] = system: K562; assay: Cell viability assay (XTT); format: cell-based; settings: Homo sapiens, up to 72 hr
Description: as §1

[8] = system: Molt-4; assay: Cell viability assay (XTT); format: cell-based; settings: Homo sapiens; Molt-4, XTT, up to 72 hr
Description: as §1

[9] = system: MEG-01; assay: Cell viability assay (XTT); format: cell-based; settings: Homo sapiens; MEG-01, XTT, up to 72 hr
Description: as §1

[10] = system: OCI-LY18; assay: Cell viability assay (XTT); format: cell-based; settings: Homo sapiens, up to 72 hr
Description: as §1

[11] = system: U2973; assay: Cell viability assay (XTT); format: cell-based; settings: Homo sapiens, U-2973, up to 72 hr
Description: as §1

[12] = system: HEL; assay: Cell viability assay (XTT); format: cell-based; settings: Homo sapiens, up to 72 hr
Description: as §1

[13] = system: 22Rv1 cells; assay: 22Rv1 cell proliferation assay with wash-off or mock wash-off; format: cell-based, human; settings: Homo sapiens
Description: A 22Rv1 cell proliferation assay was used to assess durability of test compound effects after transient exposure of test compound to cells. 22Rv1 cells were seeded at 3000 cells per well/100 μl in a 96-well plate and incubated with test compounds at specified dilutions for 2 hr at 37° C. and 5% CO2. Following the incubation, test compound was washed off and replacement culture medium without test compound was added. Wash-off was performed by three PBS washes. The cells were incubated for an additional 96 hr at 37° C. and 5% CO2. In parallel, a mock wash-off was performed with cells that were treated identically except that the replacement culture medium contained test compound. The plate was incubated for 4 hr at 37° C., 5% CO2 and fluorescence was measured using excitation and emission wavelengths of 535 and 590 nm, respectively. Cell viability data were plotted using GraphPad Prism (GraphPad Software, Inc., San Diego, Calif.). In addition, a nonlinear regression model with a sigmoidal dose response and variable slope within GraphPad Prism was used to calculate the IC50 value of individual test compounds.

IC50 [4]: 6000 nM
IC50 [5]: 100 nM
IC50 [6]: 250 nM
IC50 [7]: 5000 nM
IC50 [8]: 300 nM
IC50 [10]: 420 nM
SMILES: C=CS(=O)(=O)Nc1ccc(Oc2ccc(F)cc2F)c(-c2cc(NC)c(=O)n(C)c2)c1 [Compound 3, N-(4-(2,4-difluorophenoxy)-3-(1-methyl-5-(methylamino)-6-oxo-1,6-dihydropyridin-3-yl)phenyl)ethenesulfonamide]
c-Myc suppression activity after washoff [1]: sustained c-Myc suppression activity
IC50 [2]: 173 nM
IC50 [3]: 90 nM
IC50 [9]: 310 nM
IC50 [11]: 240 nM
IC50 [12]: 400 nM
IC50 ([13]; 22Rv1, 2 hr exposure, three PBS washes, additional 96 hr without compound, read-out: Wash-off IC50): 96 nM
IC50 ([13]; 22Rv1, 2 hr, replacement medium with test compound, additional 96 hr, read-out: Mock wash-off IC50): 342 nM
